Experimental data: patent publication US20220323406A1, “METHODS AND COMPOSITIONS FOR DIFFERENTIATING STEM CELLS” (Massachusetts Institute of Technology, priority 2019, published 2022)
Counter-ions that a name gives are not always drawn.

How the values were obtained:
[1] = tested on: ENR+CD organoids (ISC to Paneth cell differentiation); assay: Primary screen: basal (non-stimulated) lysozyme secretion LYZ.NS, 2.5-D 384-well ENR+CD organoid differentiation; format: cell-based, mouse
Excerpt: (§1) High-throughput screening.

[2] = tested on: ENR+CD organoids (ISC to Paneth cell differentiation); assay: Primary screen: CCh-stimulated lysozyme secretion LYZ.S, 2.5-D 384-well ENR+CD organoid differentiation; format: cell-based, mouse; conditions: primary screen
Excerpt: as §1

[3] = tested on: ENR+CD organoids; assay: Primary screen: ATP (CellTiter-Glo 3D, CTG) cell number/viability, 2.5-D 384-well ENR+CD organoids;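 also: compounds given at plating and again on day 3 over a 6-day differentiation from ENR+CV stem-cell-enriched precursors, ATP measured on day 6, plate median as control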
[4] = primary screen, dose 0.08 uM, FC relative to plate median
[5] = primary screen, dose 0.08 uM, standard z score
[6] = primary screen, dose 0.40 uM, FC relative to plate median
[7] = primary screen, dose 0.40 uM, standard z score
[8] = primary screen, dose 2.00 uM, FC relative to plate median
[9] = primary screen, dose 2.00 uM, standard z score
[10] = primary screen, dose 10.00 uM, FC relative to plate median
[11] = primary screen, dose 10.00 uM, standard z score
[12] = dose 0.08 uM, FC relative to plate median
[13] = dose 0.40 uM, FC relative to plate median
[14] = dose 2.00 uM, FC relative to plate median
[15] = dose 10.00 uM, FC relative to plate median
[16] = primary screen, standard z score, dose 0.08 uM
[17] = primary screen, standard z score, dose 0.40 uM
[18] = primary screen, standard z score, dose 2.00 uM
[19] = primary screen, standard z score, dose 10.00 uM

Structure (SMILES) | Dose.FC.LYZ.NS [1, 4] [log2 fold change] | Z.LYZ.NS [1, 5] | Dose.FC.LYZ.NS [1, 6] [log2 fold change] | Z.LYZ.NS [1, 7] | Dose.FC.LYZ.NS [1, 8] [log2 fold change] | Z.LYZ.NS [1, 9] | Dose.FC.LYZ.NS [1, 10] [log2 fold change] | Z.LYZ.NS [1, 11] | Dose.FC.LYZ.NS ([1]; primary screen, dose 0.08 uM) [log2 fold change] | Dose.FC.LYZ.NS ([1]; primary screen, dose 0.40 uM) [log2 fold change] | Dose.FC.LYZ.NS ([1]; primary screen, dose 2.00 uM) [log2 fold change] | Dose.FC.LYZ.NS ([1]; primary screen, dose 10.00 uM) [log2 fold change] | Dose.FC.LYZ.S ([2]; dose 0.08 uM) [log2 fold change] | Dose.FC.LYZ.S ([2]; dose 0.40 uM) [log2 fold change] | Dose.FC.LYZ.S ([2]; dose 2.00 uM) [log2 fold change] | Dose.FC.LYZ.S ([2]; dose 10.00 uM) [log2 fold change] | Dose.FC.CTG ([3]; primary screen, dose 0.08 uM) [log2 fold change] | Dose.FC.CTG ([3]; primary screen, dose 0.40 uM) [log2 fold change] | Dose.FC.CTG ([3]; primary screen, dose 2.00 uM) [log2 fold change] | Dose.FC.CTG ([3]; primary screen, dose 10.00 uM) [log2 fold change] | further results
COc1ccc(C(=O)Nc2sc3c(c2C(N)=O)CCCC3)cc1OC [TCS 359] | 0.085 | 0.742 | 0.058 | 0.502 | 0.018 | 0.156 | −0.008 | −0.072 | – | – | – | – | – | – | – | – | – | – | – | – | Dose.FC.LYZ.S [2, 12]: 0.098 log2 fold change; Dose.FC.LYZ.S [2, 13]: 0.069 log2 fold change; Dose.FC.LYZ.S [2, 14]: −0.006 log2 fold change; Dose.FC.LYZ.S [2, 15]: 0.026 log2 fold change; Dose.FC.CTG [3, 4]: 0.150 log2 fold change; Z.CTG [3, 5]: 0.358; Dose.FC.CTG [3, 6]: 0.250 log2 fold change; Z.CTG [3, 7]: 0.598; Dose.FC.CTG [3, 8]: 0.050 log2 fold change; Z.CTG [3, 9]: 0.119; Dose.FC.CTG [3, 10]: −0.089 log2 fold change; Z.CTG [3, 11]: −0.212
CN1CCC[C@@H]1CCO[C@](C)(c1ccccc1)c1ccc(Cl)cc1 [Clemastine Fumarate] | – | – | – | – | – | – | – | – | 0.024 | −0.026 | −0.014 | −0.061 | 0.096 | −0.066 | −0.048 | 0.001 | 0.242 | 0.036 | 0.024 | −0.424 | Z.LYZ.NS [1, 16]: 0.210; Z.LYZ.NS [1, 17]: −0.227; Z.LYZ.NS [1, 18]: −0.124; Z.LYZ.NS [1, 19]: −0.534; Z.CTG [3, 16]: 0.578; Z.CTG [3, 17]: 0.086; Z.CTG [3, 18]: 0.058; Z.CTG [3, 19]: −1.013
CCc1nc(N)nc(N)c1-c1ccc(Cl)cc1 [Pyrimethamine] | −0.005 | −0.041 | −0.018 | −0.160 | −0.144 | −1.255 | −0.138 | −1.199 | – | – | – | – | – | – | – | – | – | – | – | – | Dose.FC.LYZ.S [2, 12]: 0.042 log2 fold change; Dose.FC.LYZ.S [2, 13]: −0.026 log2 fold change; Dose.FC.LYZ.S [2, 14]: −0.162 log2 fold change; Dose.FC.LYZ.S [2, 15]: −0.282 log2 fold change; Dose.FC.CTG [3, 4]: 0.007 log2 fold change; Dose.FC.CTG [3, 6]: −0.259 log2 fold change; Dose.FC.CTG [3, 8]: −0.416 log2 fold change; Dose.FC.CTG [3, 10]: −0.620 log2 fold change
CNC(=O)c1cc(Oc2ccc(NC(=O)Nc3cc(C(C)(C)C)nn3-c3ccc4ncccc4c3)c(F)c2)ccn1 [DCC-2036 (Rebastinib)] | – | – | – | – | – | – | – | – | 0.259 | 0.128 | 0.073 | −0.209 | 0.358 | 0.186 | 0.054 | −0.244 | 0.216 | 0.218 | −0.038 | −0.322 | Z.LYZ.NS [1, 16]: 2.256; Z.LYZ.NS [1, 17]: 1.116; Z.LYZ.NS [1, 18]: 0.637; Z.LYZ.NS [1, 19]: −1.823; Z.CTG [3, 16]: 0.516; Z.CTG [3, 17]: 0.520; Z.CTG [3, 18]: −0.091; Z.CTG [3, 19]: −0.769
Cc1cc2c(C(C)C)c(O)c(O)c(C=O)c2c(O)c1-c1c(C)cc2c(C(C)C)c(O)c(O)c(C=O)c2c1O [AT101] | – | – | – | – | – | – | – | – | −0.049 | −0.068 | −0.036 | −0.052 | 0.004 | −0.013 | −0.085 | −0.061 | −0.198 | 0.019 | −0.216 | −0.056 | Z.LYZ.NS (standard z score) ([1]; primary screen, dose 0.08 uM): −0.426; Z.LYZ.NS (standard z score) ([1]; primary screen, dose 0.40 uM): −0.592; Z.LYZ.NS (standard z score) ([1]; primary screen, dose 2.00 uM): −0.311; Z.LYZ.NS (standard z score) ([1]; primary screen, dose 10.00 uM): −0.452
